From patent US5773438A, “Synthetic matrix metalloprotease inhibitors and use thereof” (Glycomed Incorporated, priority 1994, dated 1998)
“Also recorded” adds a separate entry of the source.

Tests used:
[1] = test system: protease activity of chronic wound fluid; test: Azocoll assay of protease activity in chronic wound fluid; format: biochemical, human
Description: (§1) Fluids were collected from 3 types of human wounds termed closed spontaneously healing wounds, open slowly healing wounds, and open chronic wounds. In the first category were fluids collected from the chest wall of women following mastectomy surgery. Fluids from non-infected wounds that were left open for valid surgical reasons were considered open slowly healing wounds. An occlusive dressing was placed over the wound bed, and fluids were collected after 2-6 hours of occlusion. Finally, fluids were also collected from chronic open wounds by covering the wounds with occlusive dressings. Wounds were considered to be chronic if they were not clinically infected and had been open and not healing for more than 4 weeks.
(§2) The various wound fluids were assayed for matrix metalloproteinase activity using the Azocoll assay essentially as described by Chavira, et al., Analytic Biochemistry (1984), 136:446.
(§3) The fluids were centrifuged, and the supernatants filtered using a 0.45μ sterile Gelman filter. The filtrates were stored frozen at -80° C. until tested for protease activity.
(§4) The effects of four inhibitors on the protease activity present in wound fluids were determined. The inhibitors were: compounds
Stock solutions of the four inhibitors were all prepared at a concentration of 800 μg/ml. Due to different solubility properties of the inhibitors, different techniques were utilized. […] S1209 was dissolved in 1% DMSO then dissolved in 10 mM citrate, pH 5.5, containing 0.05% methyl cellulose. 39A was dissolved in propylene glycol (to give a final concentration of 2.4%) then dissolved in 1 mM CaCl2, 50 mM Tris-Cl, pH 7.8. 21A was dissolved in propylene glycol (2.4%) methyl cellulose (0.05%) and 10 mM citrate, pH 8.
The protease substrate, Azocoll, was obtained from Sigma Chemical Corporation and it is a substrate for collagenase/gelatinase-like metalloproteinase enzymes and general proteases. Clostridium histolyticum collagenase (the crude form of the enzyme) was from Worthington Biochemicals. General chemicals including TRIS buffer, DMSO, and CaCl2 were from Sigma Chemical Corporation.
(§5) Briefly, 900 μl of the Azocoll substrate suspension in buffer ([…] in 50 mM TRIS, pH 7.8, 1 mM CaCl2) was added to 1.5 ml microcentrifuge tubes then 50 μl of inhibitor (or buffer) and 50 μl of chronic wound fluid (or collagenase standard) were added to the reaction tube. The reaction tubes were placed at 37° C. in a shaker that inverted the tubes 30 times per minute. After 24 hours of incubation, the reaction tubes were centrifuges at 10,000 X g and the absorbance of the supernatant solution was measured at 520 nm with a Milton-Roy spectrophotometer. Proteolysis of Azocoll substrate generates soluble colored fragments from the insoluble Azocoll substrate. Wound fluid samples were incubated alone or with the inhibitors. Controls included incubation of the Azocoll substrate with the assay buffer to measure spontaneous degradation of the substrate. A standard curve for digestion of the Azocoll substrate was generated by incubation of the Azocoll with crude bacterial collagenase. Protease levels were expressed as net μg of collagenase equivalent per ml of chronic wound fluid. In the figures, certain of the wound fluids are referred to by an individual name.
For these experiments, due to the different solubility properties of the inhibitors, different techniques were utilized. […] S1209 was dissolved in 1% DMSO then dissolved in 10 mM citrate, pH 5.5, containing 0.05% methyl cellulose. 39A was dissolved in propylene glycol (to give a final concentration of 2.4%) then dissolved in 1 mM CaCl2, […] Tris-Cl, pH 7.8. 21A was dissolved in propylene glycol (2.4%) methyl cellulose (0.05%) and 10 mM citrate, pH 8.

[2] = test system: protease activity in open and chronic wound fluids; test: Azocoll assay of protease activity in open and chronic wound fluids; format: biochemical, human
Description: as §1, §2, §3, §4
These inhibitors were compared to certain other inhibitors and these were UL001 [HSCH2 CH(CH2 CH(CH3)2)CO--Phe--Ala--NH2 ] obtained from Peptides International and MP506, obtained from Elastin Products. EDTA (ethylenediamine tetraacetic acid) and PMSF (phenylmethylsulfonyl fluoride) were also studied.
as §5

## CNC(=O)[C@H](Cc1c[nH]c2ccccc12)NC(=O)[C@@H](CC(=O)NO)CC(C)C [Compound 5A, N-[D,L-2-isobutyl-3-(N'-hydroxycarbonylamido)-propanoyl]-tryptophan methylamide]
[1]; FIG. 4
  effective concentrations (order of magnitude): μM
  inhibition of protease activity of a chronic wound fluid: effectively inhibited; also recorded: much more potent that EDTA
[1]; FIG. 4, 0.4 μg/ml (0.1 μM)
  inhibition of proteolytic degradation of Azocoll: approximately 92%
[1]; FIG. 4, 4 μg/ml (1 μM)
  inhibition of proteolytic degradation of Azocoll: approximately 92%
[1]; FIG. 4, 4 μg/ml (10 μM)
  inhibition of proteolytic degradation of Azocoll: approximately 96%
[1]; FIG. 4, 40 μg/ml (100 μM)
  inhibition of proteolytic degradation of Azocoll: approximately 96%
[1]; FIG. 7, 800 μg/ml, untreated 284±52
  protease activity of chronic wound fluid after addition of inhibitor: 45±1 μg collagenase equivalents/ml of wound fluid
[1]; FIG. 7, highest concentration (800 μg/ml)
  inhibition of protease activity of chronic wound fluid: 84%
[1]; FIG. 7, lower concentrations, untreated 284±52
  protease activity of chronic wound fluid after addition of inhibitor, lower concentrations: up to 90±6 μg collagenase equivalents/ml of wound fluid
[2]; FIG. 5
  effect on proteolytic activity of open and chronic wound fluids: very effective inhibitors
[2]; FIG. 6
  inhibition of Azocoll-degrading proteases in wound fluids: very effectively; also recorded: very effective inhibitors
[2]; fluids with high levels of Azocoll-degrading protease activity
  reduction of proteolytic activity in open or chronic wound fluids: 95%
